This passage reports IC50 results from patent US20200216439A1, “HETERO-1,5,6,7-TETRAHYDRO-4H-INDOL-4-ONES” (BAYER PHARMA AKTIENGESELLSCHAFT, priority 2015, published 2020).

The target in the assay is T1, catalytic domain of human Bub1 (amino acids 704-1085) (Homo sapiens, UniProt O43683).
T1 construct: catalytic domain of human Bub1 (amino acids 704-1085); His6 (N); made in house; host or cells: Hi5 insect cells
Nature of the assay: Bub1 kinase assay (TR-FRET). To be noted: TR-FRET; ATP 10 μM, peptide substrate 1 μM; 60 min at 22° C.; average or median if tested more than once; read-out: Inhibition of Bub1 kinase IC50. The format is biochemical. The text has this: Bub1-inhibitory activities of compounds described in the present invention were quantified using a time-resolved fluorescence energy transfer (TR-FRET) kinase assay which measures phosphorylation of the synthetic peptide Biotin-Ahx-VLLPKKSFAEPG (C-terminus in amide form), purchased from e.g. Biosyntan (Berlin, Germany) by the (recombinant) catalytic domain of human Bub1 (amino acids 704-1085), expressed in Hi5 insect cells with an N-terminal His6-tag and purified by affinity—(Ni-NTA) and size exclusion chromatography.
In a typical assay 11 different concentrations of each compound (0.1 nM, 0.33 nM, 1.1 nM, 3.8 nM, 13 nM, 44 nM, 0.15 μM, 0.51 μM, 1.7 μM, 5.9 μM and 20 μM) were tested in duplicate within the same microtiter plate. To this end, 100-fold concentrated compound solutions (in DMSO) were previously prepared by serial dilution (1:3.4) of 2 mM stocks in a clear low volume 384-well source microtiter plate (Greiner Bio-One, Frickenhausen, Germany), from which 50 nl of compounds were transferred into a black low volume test microtiter plate from the same supplier. Subsequently, 2 μL of Bub1 (the final concentration of Bub1 was adjusted depending on the activity of the enzyme lot in order to be within the linear dynamic range of the assay: typically ˜200 ng/mL were used) in aqueous assay buffer [50 mM Tris/HCl pH 7.5, 10 mM magnesium chloride (MgCl2), 200 mM potassium chloride (KCl), 1.0 mM dithiothreitol (DTT), 0.1 mM sodium ortho-vanadate, 1% (v/v) glycerol, 0.01% (w/v) bovine serum albumine (BSA), 0.005% (v/v) Trition X-100 (Sigma), 1× Complete EDTA-free protease inhibitor mixture (Roche)] were added to the compounds in the test plate and the mixture was incubated for 15 min at 22° C. to allow pre-equilibration of the putative enzyme-inhibitor complexes before the start of the kinase reaction, which was initiated by the addition of 3 μL 1.67-fold concentrated solution (in assay buffer) of adenosine-tri-phosphate (ATP, 10 μM final concentration) and peptide substrate (1 μM final concentration). The resulting mixture (5 μL final volume) was incubated at 22° C. during 60 min., and the reaction was stopped by the addition of 5 μL of an aqueous EDTA-solution (50 mM EDTA, in 100 mM HEPES pH 7.5 and 0.2% (w/v) bovine serum albumin) which also contained the TR-FRET detection reagents (0.2 μM streptavidin-XL665 [Cisbio Bioassays, Codolet, France] and 1 nM anti-phospho-Serine antibody [Merck Millipore, cat. #35-002] and 0.4 nM LANCE EU-W1024 labeled anti-mouse IgG antibody [Perkin-Elmer, product no. AD0077, alternatively a Terbium-cryptate-labeled anti-mouse IgG antibody from Cisbio Bioassays can be used]). The stopped reaction mixture was further incubated 1 h at 22° C. in order to allow the formation of complexes between peptides and detection reagents. Subsequently, the amount of product was evaluated by measurement of the resonance energy transfer from the Eu-chelate-antibody complex recognizing the Phosphoserine residue to the streptavidin-XL665 bound to the biotin moiety of the peptide. To this end, the fluorescence emissions at 620 nm and 665 nm after excitation at 330-350 nm were measured in a TR-FRET plate reader, e.g. a Rubystar or Pherastar (both from BMG Labtechnologies, Offenburg, Germany) or a Viewlux (Perkin-Elmer) and the ratio of the emissions (665 nm/[…]) was taken as indicator for the amount of phosphorylated substrate. The data were normalised using two sets of control wells for high—(=enzyme reaction without inhibitor=0%=Minimum inhibition) and low—(=all assay components without enzyme=100%=Maximum inhibition) Bub1 activity. IC50 values were calculated by fitting the normalized inhibition data to a 4-parameter logistic equation (Minimum, Maximum, IC50, Hill; Y=Max+(Min−Max)/(1+(X/IC50)Hill)).
For orientation: In TR-FRET formats the signal depends on donor and acceptor labels being close together.

T1 sequence (O43683 704-1085): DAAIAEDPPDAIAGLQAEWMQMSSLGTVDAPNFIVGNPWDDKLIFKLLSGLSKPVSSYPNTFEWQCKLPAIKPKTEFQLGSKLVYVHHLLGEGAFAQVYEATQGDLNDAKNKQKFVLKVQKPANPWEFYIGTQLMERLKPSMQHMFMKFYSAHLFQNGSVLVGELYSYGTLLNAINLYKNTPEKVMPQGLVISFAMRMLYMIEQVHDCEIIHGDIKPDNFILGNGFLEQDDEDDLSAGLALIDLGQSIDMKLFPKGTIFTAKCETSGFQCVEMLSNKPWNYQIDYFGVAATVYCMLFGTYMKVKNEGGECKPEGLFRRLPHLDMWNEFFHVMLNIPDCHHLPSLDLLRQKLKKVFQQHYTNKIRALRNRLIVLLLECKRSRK

Broadly, the IC50 is the concentration needed to halve the response being measured. Take `O=C1C[S+]([O-])Cc2[nH]c(-c3ccncc3)c(Nc3ccccc3)c21` (stereo not shown) [Example 20, 3-(phenylamino)-2-(pyridin-4-yl)-1,7-dihydrothiopyrano[3,4-b]pyrrol-4(5H)-one 6-oxide]: the IC50 came to 152 nM.
Turning to `CC(=O)Nc1cc(-c2[nH]c3c(c2Nc2ccccc2)C(=O)CN(S(=O)(=O)CCO)C3)ccn1` [Example 188, N-(4-{3-Anilino-6-[(2-hydroxyethyl)sulfonyl]-4-oxo-4,5,6,7-tetrahydro-1H-pyrrolo[2,3-c]pyridin-2-yl}pyridin-2-yl)acetamide], the IC50 was found to be 4 nM.
The value for `COc1cc(C(=O)Nc2cc(-c3[nH]c4c(c3Nc3ccccc3)C(=O)CN(S(=O)(=O)N(C)C)C4)ccn2)ccc1F` [Example 259, N-4-[6-(Dimethylsulfamoyl)-4-oxo-3-(phenylamino)-4,5,6,7-tetrahydro-1H-pyrrolo[2,3-c]pyridin-2-yl]pyridin-2-yl-4-fluoro-3-methoxybenzamide] was 3 nM; that for `O=C1CN(S(=O)(=O)CCC(F)(F)F)Cc2[nH]c(-c3ccncc3)c(Nc3ccccc3)c21` [Example 69, 3-(phenylamino)-2-(pyridin-4-yl)-6-[(3,3,3-trifluoropropyl)sulfonyl]-1,5,6,7-tetrahydro-4H-pyrrolo[2,3-c]pyridin-4-one] was 4 nM.
To `COc1cnccc1-c1[nH]c2c(c1Nc1ccccc1)C(=O)CNC2` [Example 103, 2-(3-Methoxypyridin-4-yl)-3-(phenylamino)-1,5,6,7-tetrahydro-4H-pyrrolo[2,3-c]pyridin-4-one] belongs 138 nM; to `O=C(Nc1cc(-c2[nH]c3c(c2Nc2ccccc2)C(=O)COC3)ccn1)c1ccc(F)cc1` [Example 52, 4-Fluoro-N-{4-[4-oxo-3-(phenylamino)-1,4,5,7-tetrahydropyrano[3,4-b]pyrrol-2-yl]pyridin-2-yl}benzamide], 10 nM.
To `CC(C)(O)C(=O)Nc1cc(-c2[nH]c3c(c2Nc2ccccc2)C(=O)COC3)ccn1` [Example 152, N-[4-(3-Anilino-4-oxo-1,4,5,7-tetrahydropyrano[3,4-b]pyrrol-2-yl)pyridin-2-yl]-2-hydroxy-2-methylpropanamide] belongs 437 nM; to `CC(=O)Nc1cc(-c2[nH]c3c(c2Nc2ccccc2)C(=O)CN(C(=O)N2CCN(C)CC2)C3)ccn1` [Example 127, N-(4-{3-Anilino-6-[(4-methylpiperazin-1-yl)carbonyl]-4-oxo-4,5,6,7-tetrahydro-1H-pyrrolo[2,3-c]pyridin-2-yl}pyridin-2-yl)acetamide], 29 nM.
On to `CC(=O)Nc1cc(-c2[nH]c3c(c2Nc2ccccc2)C(=O)CN(C(=O)N2CCOCC2)C3)ccn1` [Example 125, N-{4-[3-Anilino-6-(morpholin-4-ylcarbonyl)-4-oxo-4,5,6,7-tetrahydro-1H-pyrrolo[2,3-c]pyridin-2-yl]pyridin-2-yl}acetamide], for which the IC50 was 10 nM.
The value for `COC(=O)N1CC(=O)c2c([nH]c(-c3ccnc(NC(=O)[C@@H]4C[C@H]4F)c3)c2Nc2ccccc2)C1` [Example 143, Methyl 3-anilino-2-[2-({[(1S,2R)-2-fluorocyclopropyl]carbonyl}amino)pyridin-4-yl]-4-oxo-1,4,5,7-tetrahydro-6H-pyrrolo[2,3-c]pyridine-6-carboxylate] was 6 nM; that for `Cc1ccc(Nc2c(-c3ccnc(N)c3)[nH]c3c2C(=O)CN(C(=O)OC(C)(C)C)C3)cc1` [Example 294, tert-butyl 2-(2-Aminopyridin-4-yl)-3-[(4-methylphenyl)amino]-4-oxo-1,4,5,7-tetrahydro-6H-pyrrolo[2,3-c]pyridine-6-carboxylate] was 499 nM.
To `Cc1cc(F)ccc1C(=O)Nc1cc(-c2[nH]c3c(c2Nc2ccccc2)C(=O)CN(C(=O)OC(C)(C)C)C3)ccn1` [Example 263, tert-Butyl 2-2-[(4-fluoro-2-methylbenzoyl)amino]pyridin-4-yl-4-oxo-3-(phenylamino)-1,4,5,7-tetrahydro-6H-pyrrolo[2,3-c]pyridine-6-carboxylate] belongs 38 nM; to `O=C1CN(C(=O)NC2CCOCC2)Cc2[nH]c(-c3ccncc3)c(Nc3ccccc3)c21` [Example 96, 4-Oxo-3-(phenylamino)-2-(pyridin-4-yl)-N-(tetrahydro-2H-pyran-4-yl)-1,4,5,7-tetrahydro-6H-pyrrolo[2,3-c]pyridine-6-carboxamide], 55 nM.
In the case of `COCCOc1cnccc1-c1[nH]c2c(c1Nc1ccccc1)C(=O)CN(C(C)=O)C2` [Example 230, 6-Acetyl-2-[3-(2-methoxyethoxy)pyridin-4-yl]-3-(phenylamino)-1,5,6,7-tetrahydro-4H-pyrrolo[2,3-c]pyridin-4-one], the IC50 stood at 16 nM.
The value for `COCCNC(=O)N1CC(=O)c2c([nH]c(-c3ccncc3)c2Nc2ccccc2)C1` [Example 86, N-(2-Methoxyethyl)-4-oxo-3-(phenylamino)-2-(pyridin-4-yl)-1,4,5,7-tetrahydro-6H-pyrrolo[2,3-c]pyridine-6-carboxamide] was 11 nM; that for `COc1ccc(C(=O)Nc2cc(-c3[nH]c4c(c3Nc3ccccc3)C(=O)CN(C(C)=O)C4)ccn2)cc1F` [Example 285, N-4-[6-Acetyl-4-oxo-3-(phenylamino)-4,5,6,7-tetrahydro-1H-pyrrolo[2,3-c]pyridin-2-yl]pyridin-2-yl-3-fluoro-4-methoxybenzamide] was 6 nM.
In the case of `O=C1CN(C(=O)OCCF)Cc2[nH]c(-c3ccncc3)c(Nc3ccccc3)c21` [Example 79, 2-Fluoroethyl 4-oxo-3-(phenylamino)-2-(pyridin-4-yl)-1,4,5,7-tetrahydro-6H-pyrrolo[2,3-c]pyridine-6-carboxylate], the IC50 was found to be 8 nM.
To `CC(C)(C)SC(=O)N1CC(=O)c2c([nH]c(-c3ccnc(NC(=O)C4(F)CC4)c3)c2Nc2ccccc2)C1` [Example 307, S-tert-Butyl 3-anilino-2-{2-([(1-fluorocyclopropyl)carbonyl]amino}pyridin-4-yl)-4-oxo-1,4,5,7-tetrahydro-6H-pyrrolo[2,3-c]pyridine-6-carbothioate] belongs 182 nM; to `CN(C)CCOc1cnccc1-c1[nH]c2c(c1Nc1ccccc1)C(=O)CNC2` [Example 277, 2-3-[2-(Dimethylamino)ethoxy]pyridin-4-yl-3-(phenylamino)-1,5,6,7-tetrahydro-4H-pyrrolo[2,3-c]pyridin-4-one], 102 nM; to `COc1cc(C(=O)Nc2cc(-c3[nH]c4c(c3Nc3ccccc3)C(=O)CN(C(=O)OC(C)(C)C)C4)ccn2)ccc1F` [Example 253, tert-butyl 2-2-[(4-fluoro-3-methoxybenzoyl)amino]pyridin-4-yl-4-oxo-3-(phenylamino)-1,4,5,7-tetrahydro-6H-pyrrolo[2,3-c]pyridine-6-carboxylate], 42 nM.
For `COc1cc(C(=O)Nc2cc(-c3[nH]c4c(c3Nc3ccccc3)C(=O)COC4)ccn2)ccc1F` [Example 140, N-[4-(3-Anilino-4-oxo-1,4,5,7-tetrahydropyrano[3,4-b]pyrrol-2-yl)pyridin-2-yl]-4-fluoro-3-methoxybenzamide], the IC50 worked out at 31 nM.
As to `O=C1CN(S(=O)(=O)c2cnc[nH]2)Cc2[nH]c(-c3ccnc(NC(=O)[C@H]4C[C@H]4F)c3)c(Nc3ccccc3)c21` (relative stereo) [Example 163, rel-(1R,2R)—N-{4-[3-Anilino-6-(1H-imidazol-5-ylsulfonyl)-4-oxo-4,5,6,7-tetrahydro-1H-pyrrolo[2,3-c]pyridin-2-yl]pyridin-2-yl}-2-fluorocyclopropanecarboxamide], the IC50 was determined as 6 nM.
